Test results reported in PubChem BioAssay AID330 (DTP/NCI, 2004).
Where “and” joins values, the source holds several entries; their conditions need not be identical. Equal entries are not always repeated. Inconclusive results and toxic doses are left out.

Tested on: P388 leukemia ip, CD2F1 mice, survival T/C
Test: NCI In Vivo Anticancer Drug Screen. Data for tumor model P388 Leukemia (intraperitoneal) in CD2F1 (CDF1) mice
Conditions: endpoint: median survival time, higher = longer survival
Method in brief: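 Mice carrying the transplanted tumor received test compound or vehicle. Survival was recorded in each group, and the value is the treated-group measurement divided by that of the vehicle-treated control group.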

[1] = dose: 25.0 mg/kg/injection, schedule: Q01DX009 (ip), vehicle: saline with Tween-80
[2] = dose: 50.0 mg/kg/injection, schedule: Q01DX009 (ip), vehicle: saline with Tween-80
[3] = dose: 100.0 mg/kg/injection, schedule: Q01DX009 (ip), vehicle: saline with Tween-80
[4] = dose: 200.0 mg/kg/injection, schedule: Q01DX009 (ip), vehicle: saline with Tween-80
[5] = dose: 25.0 mg/kg/injection, schedule: Q01DX009 (ip), vehicle: saline

COC(=O)C[C@](O)(CCCC(C)(C)O)C(=O)O[C@@H]1C(OC)=C[C@]23CCCN2CCc2cc4c(cc2[C@H]13)OCO4
T/C (dose: 0.06 mg/kg/injection, schedule: Q01DX005 (iv), vehicle: clinical formulation): 106 % of control
T/C (dose: 0.06 mg/kg/injection, schedule: Q01DX005 (iv), vehicle: saline): 104 % of control
T/C (dose: 0.12 mg/kg/injection, schedule: Q01DX005 (iv), vehicle: clinical formulation): 112 % of control
T/C (dose: 0.12 mg/kg/injection, schedule: Q01DX005 (iv), vehicle: saline): 102 % of control
T/C (dose: 0.12 mg/kg/injection, schedule: Q01DX009 (ip), vehicle: clinical formulation): 155 % of control
T/C (dose: 0.12 mg/kg/injection, schedule: Q01DX009 (ip), vehicle: saline): 152 % of control
T/C (dose: 0.25 mg/kg/injection, schedule: Q01DX005 (iv), vehicle: clinical formulation): 121 % of control
T/C (dose: 0.25 mg/kg/injection, schedule: Q01DX005 (iv), vehicle: saline): 102 % of control
T/C (dose: 0.25 mg/kg/injection, schedule: Q01DX009 (ip), vehicle: clinical formulation): 166 % of control
T/C (dose: 0.25 mg/kg/injection, schedule: Q01DX009 (ip), vehicle: saline): 162 % of control
T/C (dose: 0.5 mg/kg/injection, schedule: Q01DX005 (iv), vehicle: clinical formulation): 160 % of control
T/C (dose: 0.5 mg/kg/injection, schedule: Q01DX009 (ip), vehicle: clinical formulation): 199 % of control
T/C (dose: 0.5 mg/kg/injection, schedule: Q01DX009 (ip), vehicle: saline): 185 % of control
T/C (dose: 0.58 mg/kg/injection, schedule: Q01DX009 (ip), vehicle: acid diluted with saline): 194 % of control
T/C (dose: 0.75 mg/kg/injection, schedule: Q01DX009 (ip), vehicle: acid diluted with saline): 173 % of control and 180 % of control
T/C (dose: 1.0 mg/kg/injection, schedule: Q01DX005 (iv), vehicle: clinical formulation): 194 % of control
T/C (dose: 1.0 mg/kg/injection, schedule: Q01DX005 (iv), vehicle: saline): 168 % of control
T/C (dose: 1.0 mg/kg/injection, schedule: Q01DX009 (ip), vehicle: clinical formulation): 252 % of control
T/C (dose: 1.65 mg/kg/injection, schedule: Q01DX009 (ip), vehicle: acid diluted with saline): 211 % of control and 229 % of control
T/C (dose: 1.75 mg/kg/injection, schedule: Q01DX009 (ip), vehicle: acid diluted with saline): 229 % of control and 234 % of control and 93 % of control
T/C (dose: 1.8 mg/kg/injection, schedule: Q04DX003 (ip), vehicle: saline + alcohol): 159 % of control
T/C (dose: 1.8 mg/kg/injection, schedule: Q04DX003 (ip), vehicle: saline): 152 % of control
T/C (dose: 2.0 mg/kg/injection, schedule: Q01DX005 (iv), vehicle: saline): 203 % of control
T/C (dose: 2.25 mg/kg/injection, schedule: Q01DX009 (ip), vehicle: acid diluted with saline): 223 % of control (2×) and 93 % of control
T/C (dose: 2.5 mg/kg/injection, schedule: Q01DX009 (ip), vehicle: acid diluted with saline): 106 % of control and 95 % of control
T/C (dose: 3.0 mg/kg/injection, schedule: Q01DX009 (ip), vehicle: acid diluted with saline): 66 % of control
T/C (dose: 3.0 mg/kg/injection, schedule: Q04DX003 (ip), vehicle: saline + alcohol): 99 % of control
T/C (dose: 3.33 mg/kg/injection, schedule: Q04DX003 (ip), vehicle: saline): 103 % of control

CCCCCCCCCCCCCCCC(=O)Nc1ccn(C2OC(CO)C(O)C2O)c(=O)n1 (stereo unspecified)
T/C (dose: 3.12 mg/kg/injection, schedule: Q01DX009 (ip), vehicle: suspension in saline): 172 % of control
T/C (dose: 6.25 mg/kg/injection, schedule: Q01DX009 (ip), vehicle: suspension in saline): 188 % of control
T/C (dose: 12.5 mg/kg/injection, schedule: Q01DX009 (ip), vehicle: suspension in saline): 191 % of control and 235 % of control
T/C (dose: 25.0 mg/kg/injection, schedule: Q01DX009 (ip), vehicle: suspension in saline): 260 % of control and 283 % of control

Cc1coc2c1C(O)C1(C)C(C)CCC(O)C1C2=O (stereo unspecified)
T/C (dose: 7.5 mg/kg/injection, schedule: Q01DX009 (ip), vehicle: saline with Tween-80): 101 % of control
T/C (dose: 15.0 mg/kg/injection, schedule: Q01DX009 (ip), vehicle: saline with Tween-80): 101 % of control
T/C (dose: 30.0 mg/kg/injection, schedule: Q01DX009 (ip), vehicle: saline with Tween-80): 101 % of control
T/C (dose: 60.0 mg/kg/injection, schedule: Q01DX009 (ip), vehicle: saline with Tween-80): 102 % of control

Cc1cc2c(cc1C)C(=O)c1c(O)c3c(c(O)c1C2=O)C[C@@](O)(C(=O)CO)C[C@@H]3OC1CC(N)C(O)C(C)O1 (stereo partly specified)
T/C (dose: 0.39 mg/kg/injection, schedule: Q04DX003 (ip), vehicle: water): 115 % of control
T/C (dose: 0.78 mg/kg/injection, schedule: Q04DX003 (ip), vehicle: water): 115 % of control
T/C (dose: 1.56 mg/kg/injection, schedule: Q04DX003 (ip), vehicle: water): 110 % of control
T/C (dose: 3.13 mg/kg/injection, schedule: Q04DX003 (ip), vehicle: water): 151 % of control and 157 % of control
T/C (dose: 6.25 mg/kg/injection, schedule: Q04DX003 (ip), vehicle: water): 190 % of control
T/C (dose: 25.0 mg/kg/injection, schedule: Q04DX003 (ip), vehicle: water): 100 % of control

Cc1ccc(C(=O)/C=C/c2ccccc2)cc1
T/C (dose: 12.5 mg/kg/injection, schedule: Q01DX009 (ip), vehicle: water): 94 % of control
T/C [1]: 92 % of control
T/C (dose: 25.0 mg/kg/injection, schedule: Q01DX009 (ip), vehicle: water): 95 % of control
T/C [2]: 108 % of control
T/C (dose: 50.0 mg/kg/injection, schedule: Q01DX009 (ip), vehicle: water): 99 % of control
T/C [3]: 102 % of control
T/C (dose: 100.0 mg/kg/injection, schedule: Q01DX009 (ip), vehicle: water): 104 % of control
T/C [4]: 109 % of control
T/C (dose: 200.0 mg/kg/injection, schedule: Q01DX009 (ip), vehicle: water): 96 % of control

COC(=N)C1=CC(C)(C)N(O)C1(C)C
T/C (dose: 100.0 mg/kg/injection, schedule: Q01DX001 (ip), vehicle: saline): 96 % of control
T/C (dose: 200.0 mg/kg/injection, schedule: Q01DX001 (ip), vehicle: saline): 102 % of control
T/C (dose: 400.0 mg/kg/injection, schedule: Q01DX001 (ip), vehicle: saline): 98 % of control

C1CNC2NCCNC2N1 (stereo unspecified)
T/C [5]: 118 % of control

Cn1c[n+](C2OC(CO)C(O)C2O)c2nc(N)[nH]c(=O)c21 (stereo unspecified)
T/C (dose: 50.0 mg/kg/injection, schedule: Q01DX005 (ip), vehicle: saline): 119 % of control
T/C (dose: 100.0 mg/kg/injection, schedule: Q01DX005 (ip), vehicle: saline): 105 % of control
T/C (dose: 200.0 mg/kg/injection, schedule: Q01DX005 (ip), vehicle: saline): 115 % of control

NC(=O)NC1CCCCCCC1
T/C (dose: 100.0 mg/kg/injection, schedule: Q04DX003 (ip), vehicle: saline with Tween-80): 100 % of control
T/C (dose: 200.0 mg/kg/injection, schedule: Q04DX003 (ip), vehicle: saline with Tween-80): 109 % of control
T/C (dose: 400.0 mg/kg/injection, schedule: Q04DX003 (ip), vehicle: saline with Tween-80): 95 % of control

O=[N+]([O-])c1cc(NC(=S)SCc2ccc(Cl)cc2)ccc1Cl
T/C [1]: 106 % of control
T/C [5]: 105 % of control
T/C [2]: 100 % of control
T/C (dose: 50.0 mg/kg/injection, schedule: Q01DX009 (ip), vehicle: saline): 100 % of control
T/C (dose: 50.0 mg/kg/injection, schedule: Q01DX009 (ip), vehicle: suspension in saline): 109 % of control
T/C [3]: 106 % of control
T/C (dose: 100.0 mg/kg/injection, schedule: Q01DX009 (ip), vehicle: saline): 107 % of control
T/C (dose: 100.0 mg/kg/injection, schedule: Q01DX009 (ip), vehicle: suspension in saline): 108 % of control
T/C [4]: 106 % of control
T/C (dose: 200.0 mg/kg/injection, schedule: Q01DX009 (ip), vehicle: saline): 110 % of control
T/C (dose: 200.0 mg/kg/injection, schedule: Q01DX009 (ip), vehicle: suspension in saline): 121 % of control

CCN(CCO)C(=O)Nc1ccc(Cl)cc1
T/C (dose: 60.0 mg/kg/injection, schedule: Q01DX005 (ip), vehicle: Klucel + Tween-80): 99 % of control
T/C (dose: 120.0 mg/kg/injection, schedule: Q01DX005 (ip), vehicle: Klucel + Tween-80): 101 % of control
T/C (dose: 240.0 mg/kg/injection, schedule: Q01DX005 (ip), vehicle: Klucel + Tween-80): 100 % of control

CC/C(=C\c1ccccc1)[N+](=O)[O-]
T/C (dose: 12.5 mg/kg/injection, schedule: Q01DX009 (ip), vehicle: saline with Tween-80): 103 % of control
T/C [1]: 123 % of control

COc1cc2c(cc1OC)OC(C)(C)C=C2
T/C (dose: 6.87 mg/kg/injection, schedule: Q01DX009 (ip), vehicle: saline with Tween-80): 106 % of control
T/C (dose: 13.75 mg/kg/injection, schedule: Q01DX009 (ip), vehicle: saline with Tween-80): 98 % of control
T/C (dose: 27.5 mg/kg/injection, schedule: Q01DX009 (ip), vehicle: saline with Tween-80): 108 % of control
T/C (dose: 55.0 mg/kg/injection, schedule: Q01DX009 (ip), vehicle: saline with Tween-80): 102 % of control
